Consider one compound from patent publication US4835258A, “Conjugation of aromatic amines or nitro-containing compounds with proteins or polypeptides by photoirradiation of the azide derivatives with ultraviolet light in order to produce antibodies against the haptens” (Northwestsern University, priority 1986, dated 1989).

The test system of one data set is anti-ANEC-BSA serum. The data set can be described thus: Inhibition ELISA, anti-ANEC-BSA serum on ANEC-BSA coated wells. Particulars: anti ANEC-BSA sera. It counts as binding, rabbit. (ELISA stands for enzyme-linked immunosorbent assay.)
Data set [1] in a line: Solubility in aqueous buffer. Particulars: insoluble above this concentration, read-out: solubility limit in aqueous buffer. It counts as physicochemical.

Broadly, the solubility is the dissolved amount per volume that the medium holds. Consider `CCn1c2ccccc2c2cc(N)ccc21` [3-amino-N-ethyl-carbazole, 3-amino-N-ethylcarbazole], for which, in the data set on anti-ANEC-BSA serum (free hapten as inhibitor, read-out: concentration giving 50% inhibition of antibody binding), the IC50 is 10 µM. For the same compound, in the data set with anti-ANEC-BSA serum (free hapten at 1 mM), the “inhibition of antibody binding” value turned out to be 70%. Besides, the solubility in data set [1] was at most 1000 µM.
